Patent US10155987B2, “Methods of predicting resistance to JAK inhibitor therapy” (Dana-Farber Cancer Institute, Inc., priority 2012, dated 2018)

Tests used:
[1] = test system: BaF3.EpoR cells expressing JAK2V617F with G935R mutation; assay: Cell growth in response to JAK2 inhibitors, G935R mutant; format: cell-based, murine
[2] = test system: BaF3.EpoR cells expressing JAK2V617F with Y931C mutation; assay: Cell growth in response to JAK2 inhibitors, Y931C mutant; format: cell-based, murine
[3] = test system: BaF3.EpoR cells expressing JAK2V617F with Y931C, G935R, R938L, 1960V or E985K mutation; assay: Cell growth in response to JAK2 inhibitors, all five resistance mutants (stated together); format: cell-based, murine; conditions: summary statement
Description: Cell growth in response to various drug concentrations was measured by trypan blue (Sigma) exclusion or with the CellTiter 96® AQueous One Solution Cell Proliferation Assay reagent (Promega, Madison, Wis.).
BaF3.EpoR cell lines expressing potential drug resistant mutant JAK2V617F were generated by retroviral infection, as described previously. […] Polyclonal populations of these cells were used to determine changes in growth in response to various JAK2 inhibitors.

JAK2 = JAK2 (Homo sapiens, UniProt O60674); conditions: cited from earlier work
Chain of JAK2 (O60674 whole entry, species assumed): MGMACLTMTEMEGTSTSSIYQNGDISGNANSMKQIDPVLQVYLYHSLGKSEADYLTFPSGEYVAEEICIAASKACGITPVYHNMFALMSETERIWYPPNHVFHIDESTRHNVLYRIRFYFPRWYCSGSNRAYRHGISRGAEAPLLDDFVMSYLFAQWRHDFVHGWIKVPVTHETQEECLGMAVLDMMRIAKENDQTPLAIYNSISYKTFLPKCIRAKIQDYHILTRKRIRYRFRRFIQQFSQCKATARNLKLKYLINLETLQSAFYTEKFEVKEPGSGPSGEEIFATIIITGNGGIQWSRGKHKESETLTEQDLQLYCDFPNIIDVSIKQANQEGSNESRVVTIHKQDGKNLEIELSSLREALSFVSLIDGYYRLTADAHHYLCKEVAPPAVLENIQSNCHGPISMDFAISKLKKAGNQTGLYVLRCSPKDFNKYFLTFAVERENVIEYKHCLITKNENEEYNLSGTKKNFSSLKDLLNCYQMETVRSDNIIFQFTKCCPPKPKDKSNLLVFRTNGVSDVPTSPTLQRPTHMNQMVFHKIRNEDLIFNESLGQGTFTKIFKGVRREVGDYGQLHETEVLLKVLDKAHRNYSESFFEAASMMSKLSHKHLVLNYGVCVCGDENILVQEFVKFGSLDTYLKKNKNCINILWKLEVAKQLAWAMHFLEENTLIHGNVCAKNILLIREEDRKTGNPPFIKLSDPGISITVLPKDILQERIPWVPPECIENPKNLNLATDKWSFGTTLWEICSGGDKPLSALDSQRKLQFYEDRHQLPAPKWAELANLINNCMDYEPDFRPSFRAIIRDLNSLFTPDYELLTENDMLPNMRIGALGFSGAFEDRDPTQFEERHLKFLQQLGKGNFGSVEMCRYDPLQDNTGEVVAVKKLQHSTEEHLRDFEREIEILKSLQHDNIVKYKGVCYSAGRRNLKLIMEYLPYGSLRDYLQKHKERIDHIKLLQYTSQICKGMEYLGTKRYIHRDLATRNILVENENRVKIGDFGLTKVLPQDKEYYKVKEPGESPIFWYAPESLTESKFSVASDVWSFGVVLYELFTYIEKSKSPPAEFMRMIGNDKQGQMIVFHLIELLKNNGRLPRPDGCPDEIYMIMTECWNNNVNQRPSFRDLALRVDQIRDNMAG

## Cc1cc(Nc2nc(N[C@@H](C)c3ncc(F)cn3)ncc2Cl)n[nH]1 [AZD1480]
[1]
  increase in EC50 compared to native JAK2V617F: > 7 fold
[1]; Mus musculus
  EC50: > 10 µM
[2]
  increase in EC50 compared to native JAK2V617F: > 7 fold
[2]; Mus musculus
  EC50: > 10 µM
[3]
  resistance conferred by the mutations (in words): cross-resistance

## N#CCNC(=O)c1ccc(-c2ccnc(Nc3ccc(N4CCOCC4)cc3)n2)cc1 [CYT-387]
[3]
  resistance conferred by the mutations (in words): cross-resistance

## C[C@H](Nc1cc(-c2cnn(C)c2)cc(Nc2cnccn2)n1)c1ccc(F)cc1 [NS018]
JAK2
  IC50: < 0.001 µM
  selectivity for JAK2 over other JAK-family kinases: 30-50 fold

## Cc1cnc(Nc2ccc(OCCN3CCCC3)cc2)nc1Nc1cccc(S(=O)(=O)NC(C)(C)C)c1 [TG101348]
[3]
  resistance conferred by the mutations (in words): cross-resistance
